Series [1] concerns rabbit venous thrombosis model. The experiment in a line: Rabbit deep vein (venous) thrombosis model. It is filed as in vivo. To be noted: for Hct: mean (SD on next line); for PLT / RBC / WBC: mean±SD. An excerpt: Rabbits were anesthetized with I.M. injections of Ketamine, Xylazine, and Acepromazine cocktail.
Series [2] in a line: Cuticle bleeding time model in rabbits. The class given is in vivo, rabbit. To be noted: 1500 μg/kg+14.85 μg/kg/min, bleeding time experiments. As for the experimental part:
In an ancillary study, a Cuticle Bleeding Time model was used to evaluate the effect of test compounds on bleeding time (BT) measurements in rabbits. The standardized protocol involved anesthesia and catheterization of rabbits as previously described in this Example 43. To measure BT, a toe nail was cut 5 mm from the base of the cuticle with a canine nail trimming device. Time until cessation of bleeding was recorded by wicking the blood on to BT blotting paper in 30 second intervals. Test compound was administered as a bolus followed by infusion regimen. Two BT measurements were obtained prior to administration of test compound and three BT measurements accomplished serially after initiation of steady state infusion of test compound. BT measurements were allowed to continue for up to 30 minutes at which time it was stopped with application of silver nitrate. Blood samples were obtained just prior to all BT measurements and processed for measurement of hematological and coagulation parameters.

The target of the next series is factor Xa (Homo sapiens, UniProt P00742). The series can be described thus: Factor Xa amidolytic assay (chromogenic substrate S2765). The class given is biochemical. To be noted: read-out: Inhibitory Activity (IC50) Factor Xa.
Sequence of factor Xa (P00742 235-488 limits assumed): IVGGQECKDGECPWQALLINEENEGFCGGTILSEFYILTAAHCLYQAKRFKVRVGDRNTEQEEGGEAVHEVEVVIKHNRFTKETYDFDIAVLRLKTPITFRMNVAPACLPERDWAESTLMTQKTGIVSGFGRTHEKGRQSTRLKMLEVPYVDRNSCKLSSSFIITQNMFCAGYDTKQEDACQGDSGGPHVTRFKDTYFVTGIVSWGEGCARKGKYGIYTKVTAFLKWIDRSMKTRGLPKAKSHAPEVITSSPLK
Sequence of factor Xa (P00742 41-179 limits assumed): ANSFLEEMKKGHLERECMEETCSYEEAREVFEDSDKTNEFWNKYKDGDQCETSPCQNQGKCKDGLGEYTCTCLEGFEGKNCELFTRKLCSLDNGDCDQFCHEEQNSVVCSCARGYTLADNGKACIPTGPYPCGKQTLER
Another series addresses prothrombinase complex (Homo sapiens, UniProt P00742). The series can be described thus: Prothrombinase inhibition assay, plasma free system (thrombin generation, Chromozym TH). The class given is biochemical. Conditions: read-out: Inhibitory Activity (IC50) Prothrombinase.

pIC50: −log10 of the molar value. Square brackets hold non-standard residues; d marks the D form. Peptide text beside a SMILES is read from it. * marks the point of attachment. Hydrocinnamoyl = O=C(CCc1ccccc1)*; dCit = NC(=O)NCCC[C@@H](N)C(=O)O; Boc = CC(C)(C)OC(=O)*

Sequence of prothrombinase complex (P00742 235-488 limits assumed): as the sequence (P00742 235-488 limits assumed) above
Sequence of prothrombinase complex (P00742 41-179 limits assumed): as the sequence (P00742 41-179 limits assumed) above
Sequence of prothrombinase complex (P12259 29-737 partner limits assumed): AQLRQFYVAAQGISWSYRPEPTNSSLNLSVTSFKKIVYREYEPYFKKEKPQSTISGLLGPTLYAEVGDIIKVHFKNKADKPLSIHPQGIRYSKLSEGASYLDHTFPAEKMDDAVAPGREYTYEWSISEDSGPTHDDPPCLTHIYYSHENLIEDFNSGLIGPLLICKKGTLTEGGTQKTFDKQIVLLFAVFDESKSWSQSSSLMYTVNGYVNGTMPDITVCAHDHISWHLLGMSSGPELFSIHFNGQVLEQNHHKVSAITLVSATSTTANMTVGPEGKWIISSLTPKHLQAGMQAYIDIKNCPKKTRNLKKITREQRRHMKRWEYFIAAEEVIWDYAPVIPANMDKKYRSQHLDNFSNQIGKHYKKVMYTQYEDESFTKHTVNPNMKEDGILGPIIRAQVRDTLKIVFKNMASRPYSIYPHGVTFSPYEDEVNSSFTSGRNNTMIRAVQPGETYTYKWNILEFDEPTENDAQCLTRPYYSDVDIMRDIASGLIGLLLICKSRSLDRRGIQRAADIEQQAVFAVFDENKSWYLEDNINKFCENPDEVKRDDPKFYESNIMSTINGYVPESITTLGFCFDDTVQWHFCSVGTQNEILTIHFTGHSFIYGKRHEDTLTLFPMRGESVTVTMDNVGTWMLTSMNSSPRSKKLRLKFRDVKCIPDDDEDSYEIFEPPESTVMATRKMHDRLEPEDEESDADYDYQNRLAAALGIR
Sequence of prothrombinase complex (P12259 1574-2224 partner limits assumed): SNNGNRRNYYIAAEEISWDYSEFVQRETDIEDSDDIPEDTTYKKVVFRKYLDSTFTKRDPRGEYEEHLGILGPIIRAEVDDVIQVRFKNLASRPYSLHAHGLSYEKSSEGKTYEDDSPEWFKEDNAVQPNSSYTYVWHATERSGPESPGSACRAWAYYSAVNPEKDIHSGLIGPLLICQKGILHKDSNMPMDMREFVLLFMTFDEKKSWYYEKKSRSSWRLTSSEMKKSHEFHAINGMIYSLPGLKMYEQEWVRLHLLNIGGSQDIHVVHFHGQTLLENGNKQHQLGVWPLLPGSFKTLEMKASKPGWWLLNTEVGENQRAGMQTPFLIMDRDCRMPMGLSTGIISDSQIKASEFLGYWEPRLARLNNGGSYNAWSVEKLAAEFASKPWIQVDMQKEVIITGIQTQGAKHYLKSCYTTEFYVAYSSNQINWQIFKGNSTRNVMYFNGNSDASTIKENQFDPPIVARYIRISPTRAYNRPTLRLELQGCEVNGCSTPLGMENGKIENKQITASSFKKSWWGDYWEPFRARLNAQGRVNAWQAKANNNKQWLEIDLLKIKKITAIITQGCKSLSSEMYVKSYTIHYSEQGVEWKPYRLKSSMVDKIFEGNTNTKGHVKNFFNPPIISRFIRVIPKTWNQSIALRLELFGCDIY

With `CC(C)(C)OC(=O)N[C@H](CCCNC(=N)N)C(=O)NCC(=O)N[C@H](C=O)CCCNC(=N)N` [Boc-D-Arg-Gly-Arg-H] (Boc-[dR]-Gly-Arg-aldehyde), in series [1] (200 + 1.98 μg/kg + μg/kg/min), the Hct came to 36.9%, the PLT is reported as 393 ± 84 × 10^3 /μL, the RBC is 5.69 ± 0.14 × 10^6 /μL and the WBC is on record as 4.45 ± 0.97 × 10^3 /μL. In series [1] (600 + 5.94 μg/kg + μg/kg/min), the Hct stood at 35.3%, the PLT is listed as 442 ± 81 × 10^3 /μL, the RBC is recorded as 5.74 ± 0.48 × 10^6 /μL and the WBC is 3.87 ± 0.65 × 10^3 /μL. In series [1] (1000 + 9.90 μg/kg + μg/kg/min), the Hct is reported as 35.5%, the PLT is recorded as 375 ± 73 × 10^3 /μL, the RBC was 5.71 ± 0.28 × 10^6 /μL and the WBC is given as 5.09 ± 1.61 × 10^3 /μL. Also, in series [1] (1500 + 14.85 μg/kg + μg/kg/min), the Hct is listed as 36.0%, the PLT was 433 ± 22 × 10^3 /μL, the RBC was 5.80 ± 0.50 × 10^6 /μL and the WBC is on record as 4.82 ± 1.01 × 10^3 /μL. Further, the “effects on hematological parameters as compared to saline controls” value in series [1] (all dose regimens) is listed as “no significant effects”. Also, in series [1] (bolus + infusion, dose range), the “antithrombotic efficacy in the rabbit venous thrombosis model” value was “demonstrated antithrombotic efficacy at the higher doses evaluated”. Besides, in series [2], the “average increase in PT” value is listed as 1.07 fold and the “average increase in aPTT” value is on record as 1.61 fold.

Broadly, the pIC50 is the negative decadic logarithm of the IC50, by convention in mol/L. As for `CC(C)(C)OC(=O)N[C@H](CCCNC(N)=O)C(=O)NCC(=O)N[C@H](C=O)CCCNC(=N)N` [Boc-D-Cit-Gly-Arg-H] (Boc-[dCit]-Gly-Arg-aldehyde), on factor Xa, the pIC50 was 5.52.

For `CN(C)C(=NCCCC[C@@H](NC(=O)OC(C)(C)C)C(=O)NCC(=O)N[C@H](C=O)CCCNC(=N)N)N(C)C` [Boc-D-Har((CH3)4)-Gly-Arg-H], the pIC50 on factor Xa is 5.30; at prothrombinase complex, 4.36.

On to `N=C(N)NCCC[C@@H](C=O)NC(=O)CNC(=O)[C@@H](CCCNC(=N)N)NC(=O)C(=O)O` [HOOCCO-D-Arg-Gly-Arg-H, Oxaloyl-D-Arg-Gly-Arg-H], for which the pIC50 on prothrombinase complex is 7.20.

With `N=C(N)NCCC[C@@H](C=O)NC(=O)CNC(=O)[C@@H](CCCNC(=N)N)NC(=O)CCc1ccccc1` [PhCH2 CH2 CO-D-Arg-Gly-Arg-H, 3-Phenylpropanoyl-D-Arg-Gly-Arg-H] (Hydrocinnamoyl-[dR]-Gly-Arg-aldehyde), the pIC50 at prothrombinase complex was 5.77.

These data come from patent US6245743A, “Inhibitors of factor Xa” (COR Therapeutics, Inc., priority 1998, dated 2001).
